Tested on: HEK293E cells
Test: Combination with IDMTs, IgG batch yield by ELISA (Example 6)
Format: cell-based, Human
Conditions: VPA 4 mmol/l; no addition = 100%; day 5 after transfection
Protocol: 10 million suspension-adapted HEK293E cells were resuspended in 0.5 ml of Ex-Cell 293 HEK 293 serum-free medium with 4 mmol/l L-glutamine (Cat. No. 14571C-[…]; Lot No. 6A0093; SAFC Biosciences, Lenexa, Kans., USA, “Ex-Cell” medium; note: “Ex-Cell” medium-as used herein-refers to a medium comprising 4 mmol/l L-glutamine) in a 50-ml filter tube each (TPP AG, Trasadingen, Switzerland; Cat. No. 87050, Lot 20050174). In a separate set, 10 million suspension-adapted CHO DG44 cells were resuspended in 0.5 ml of ProCHO5 serum-free medium with 4 mmol/[…] hypoxanthine and 0.194 g/l thymidine (BioWhittaker (Lonza), Belgium; Cat. No. BE12-[…]; Lot No. 7MB0040; “ProCHO5” medium; note: “ProCHO5” medium-as used herein-refers to a medium comprising 4 mmol/[…] hypoxanthine and 0.194 g/l thymidine) in a 50-ml filter tube each (TPP AG, Trasadingen, Switzerland; Cat. No. 87050, Lot 20050174). Then 12.5 μg plasmid DNA at a concentration of 1 μg/μl was added in each tube with the following composition 50% (6.25 μg) p-LC (SEQ ID NO: 1) 50% (6.25 μg) p-HC (SEQ ID NO: 3). Plasmid p-LC comprises the genetic information for the production of the light chain of an IgG antibody, plasmid p-HC comprises the genetic information for the production of the heavy chain of an IgG antibody. The particular vector constructs used in the present invention can also be obtained from the inventors. The inventors can be contacted via e-mail at […]. […] In short, Goat anti-human kappa light chain IgG (Biosource) was used for coating the ELISA-plates, and with AP-conjugated goat anti-human gamma chain IgG (Biosource) the synthesized IgG1 was detected. […] Absorption was measured at 405 nm against 490 nm using a microplate reader (SPECTRAmaxTM340; Molecular Devices, Palo Alto, Calif., USA).

CCCC(CCC)C(=O)O [VPA, valproic acid]
Fold increase in batch yield over control: 520% ± 30%

Reference: US20090023186A1, “USE OF VALPROIC ACID FOR ENHANCING PRODUCTION OF RECOMBINANT PROTEINS IN MAMMALIAN CELLS” (EXCELLGENE SA, priority 2007, published 2009)
